Laboratory results published in PubChem BioAssay AID1409 (The Scripps Research Institute Molecular Screening Center, 2008).
The source made the active and inactive calls. How the calls were made is not given here.

Each molecule was assayed on Cell-based STAT3 reporter inhibition, counterscreen (assay: STAT3 inhibitors in reporter cells, dose response, counter-screen for STAT1 inhibitor project (AID 1409)).
In the case of COc1ccc(-n2c(SCc3cccnc3)nc3c(c2=O)SCC3)cc1OC, the IC50 is reported as > 55.7 µM (inactive). For Cc1ccc2[nH]c3c(N4CCN(Cc5ccccc5)CC4)ncnc3c2c1, the IC50 was 16.2 µM (inactive). Cn1c(C(=O)N2CCN(c3ccc([N+](=O)[O-])cc3)CC2)cc2c(=O)[nH]c3ccccc3c21 was tested, and the IC50 was 28.7 µM (inactive). Cc1cc(NC(=O)CCCS(=O)(=O)c2nc(-c3cccs3)cc(C(F)(F)F)n2)no1 was tested, and the IC50 was > 55.7 µM (inactive). For CCOc1cc(-c2noc(N)c2C#N)cc(OCC)c1OCC, the IC50 was > 55.7 µM (inactive). For COc1ccc(-c2cc(C(F)(F)F)nc(S(=O)(=O)CCCC(=O)Nc3cccnc3Cl)n2)cc1OC, the IC50 was 32.6 µM (inactive). COc1ccc(CCNc2ncnc3cc(OC)c(OC)cc23)cc1OC was tested, and the IC50 was 14.6 µM (inactive). For COCC(C)NC(=O)CCS(=O)(=O)c1nc(-c2ccc(OC)cc2)cc(C(F)(F)F)n1 (stereo not drawn), the IC50 was > 55.7 µM (inactive). COc1ccc(CNc2ncnc3cc(Cl)ccc23)cc1OC was tested, and the IC50 was > 18.6 µM (inactive). In the case of CS(=O)(=O)c1nc(-c2ccco2)cc(C(F)(F)F)n1, the IC50 is reported as 38 µM (inactive). In the case of COC(=O)CCS(=O)(=O)c1nc(-c2ccccc2)cc(C(F)(F)F)n1, the IC50 is reported as 25.5 µM (inactive). In the case of COC(=O)C1=CN(Cc2ccc(OC)c(OC)c2)C=C(C(=O)OC)C1c1cccs1, the IC50 is reported as > 55.7 µM (inactive). CN1CCN(Cc2nc3ccccc3c(=O)n2Cc2nc(-c3ccc4ccccc4c3)cs2)CC1 was tested, and the IC50 was 49.2 µM (inactive). Cc1ccc(S(=O)(=O)N2CCN(C(C(=O)Nc3ccc(F)cc3)c3ccccc3)CC2)cc1 (stereo not drawn) was tested, and the IC50 was > 55.7 µM (inactive). For Cc1cccc(/C=C(\c2nc3ccccc3[nH]2)S(=O)(=O)c2ccccc2)c1, the IC50 was 20.3 µM (inactive). With COc1ccccc1-c1cc(C(F)(F)F)nc(S(=O)(=O)CCCC(=O)N2CCOCC2)n1 the IC50 was 30.9 µM (inactive). CCOC(=O)N1CCN(C(=O)c2ccc(-n3c(=S)[nH]c4ccccc4c3=O)cc2)CC1 was tested, and the IC50 was > 55.7 µM (inactive). With CN1CCN(Cc2nc3ccccc3c(=O)n2Cc2nc(-c3cccc([N+](=O)[O-])c3)cs2)CC1 the IC50 was > 55.7 µM (inactive). With Cc1cc(=O)n(C(NC(=O)c2ccccc2)C(=O)c2ccccc2)cn1 (stereo not drawn) the IC50 was > 55.7 µM (inactive). With O=C(c1ccc(Cl)cc1)N1CCN(c2ccnc3cc(Cl)ccc23)CC1 the IC50 was 22 µM (inactive). O=C(NNC(=O)c1cccc(S(=O)(=O)N2CCc3ccccc32)c1)c1ccccc1 was tested, and the IC50 was 15.9 µM (inactive). CCOC(=O)N1CCN(C(=O)c2ccc(CSc3ccc(Cl)cc3)cc2)CC1 was tested, and the IC50 was 16.5 µM (inactive). For Cc1ccc(C(=O)Nc2cccc(N(C)S(C)(=O)=O)c2)cc1S(=O)(=O)Nc1ccccc1, the IC50 was > 55.7 µM (inactive). For CCn1c(O)c(/C=N/NC(=O)c2ccncc2)c(=O)n(CC)c1=S, the IC50 was > 55.7 µM (inactive). For CCn1c(=O)c2cc(C(=O)N3CCCC3)sc2c2ccccc21, the IC50 was > 55.7 µM (inactive). In the case of COc1ccc(-c2cc(C(F)(F)F)nc(S(=O)(=O)CCCC(=O)Nc3cccc(O)c3)n2)cc1OC, the IC50 is reported as 31 µM (inactive). With COc1ccccc1-c1cc(C(F)(F)F)nc(S(C)(=O)=O)n1 the IC50 was 31.8 µM (inactive). Cc1ccc(-c2csc3ncnc(Sc4nnc(CN5CCCCCC5=O)o4)c23)cc1 was tested, and the IC50 was 12.2 µM (inactive). With C#Cc1ccc([C@H]2C=C(C(=O)OCC=C)O[C@@H](OCC)[C@@H]2CCCO)cc1 the IC50 was > 55.7 µM (inactive). O=C(c1ccco1)N1CCN(c2ncnc3c2[nH]c2ccc(Br)cc23)CC1 was tested, and the IC50 was 25.6 µM (inactive). CCOC(=O)CCS(=O)(=O)c1nc(-c2ccccc2)cc(C(F)(F)F)n1 was tested, and the IC50 was 24.2 µM (inactive). For COc1ccc(-c2cc(C(F)(F)F)nc(S(=O)(=O)CCCC(=O)Nc3cc(C)on3)n2)cc1OC, the IC50 was 24.8 µM (inactive). With CC1C(=O)NN=C1C(=O)N/N=C\C(Br)=C\c1ccccc1 (stereo not drawn) the IC50 was 23.8 µM (inactive). In the case of Cn1nnnc1Sc1ncnc2scc(-c3ccc(F)cc3)c12, the IC50 is reported as 22.6 µM (inactive). Cc1ccccc1NC(=O)C(=Cc1ccc(C(=O)O)cc1)C(=O)Nc1ccccc1C was tested, and the IC50 was > 55.7 µM (inactive). CC1(C)Cc2c(ccc3ccccc23)C2=C(C(=O)N3CCCC3)C(=O)C(=O)N21 was tested, and the IC50 was > 55.7 µM (inactive). For Cc1ccc(-n2nc(C(=O)O)c3ccccc3c2=O)cc1C, the IC50 was > 55.7 µM (inactive). Cc1ccc(C2=Nc3c(ccc4ccccc34)C(c3ccncc3)=NN2)cc1 was tested, and the IC50 was > 55.7 µM (inactive). O=C(c1ccco1)N1CCN(c2ncnc3c2[nH]c2ccccc23)CC1 was tested, and the IC50 was > 55.7 µM (inactive). CCN(CC)S(=O)(=O)c1ccc(N2CCOCC2)c(NC(=O)c2cc(-c3ccccn3)nc3ccccc23)c1 gave an IC50 of 9.73 µM. In the case of O=c1cc(CSc2nc3ccccc3c(=O)[nH]2)c2ccc(O)cc2o1, the IC50 is reported as > 55.7 µM (inactive). With CCOC(=O)N1CCN(C(=O)/C=C/c2c(C)nn(-c3ccc(F)cc3)c2Cl)CC1 the IC50 was 37.1 µM (inactive). In the case of CN1CCN(Cc2nc3ccccc3c(=O)n2Cc2nc(-c3ccccc3F)cs2)CC1, the IC50 is reported as > 55.7 µM (inactive). CS(=O)(=O)c1nc(-c2ccccc2)cc(C(F)(F)F)n1 was tested, and the IC50 was 20.8 µM (inactive). For CCOC(=O)c1c(C)nc2sc3c(=O)n(-c4ccc(OC)cc4)nnc3c2c1-c1ccc(OC)cc1, the IC50 was > 55.7 µM (inactive). With O=C(c1ccc2c(c1)N(Cc1ccccc1)C(=O)c1ccccc1S2)N1CCCC1 the IC50 was > 55.7 µM (inactive). O=C(CSc1nc2ccccc2c(=O)[nH]1)c1ccc(O)cc1O was tested, and the IC50 was > 55.7 µM (inactive). In the case of COc1ccc(CCNC(=O)Cn2c(=O)n(-c3ccc(F)cc3)c(=O)c3sccc32)cc1OC, the IC50 is reported as > 55.7 µM (inactive). With CS(=O)(=O)c1nc(-c2ccc(F)cc2)cc(C(F)(F)F)n1 the IC50 was 23.8 µM (inactive). With COc1ccccc1-c1cc(C(F)(F)F)nc(S(=O)(=O)CCCC(=O)Nc2cccnc2Cl)n1 the IC50 was 34.6 µM (inactive). CCOC(=O)C(=CNc1cc(C)nn1-c1ccccc1)C(=O)OCC was tested, and the IC50 was > 55.7 µM (inactive). In the case of Cc1ccccc1-c1noc(N)c1C#N, the IC50 is reported as > 55.7 µM (inactive). COc1ccccc1CNc1ncnc2cc(Cl)ccc12 was tested, and the IC50 was > 55.7 µM (inactive).
